# Results from ChEMBL document CHEMBL6127102 (Bioorg Med Chem, 2024).
# Activity calls are given as the source filed them. The calls are words filed in the database; no cut-off is given here.
# Columns and labels:
# MDA-MB-231 [1] = experiment: Antitumor activity against human MDA-MB-231 cells xenografted in BALB/c nude mouse at 38 mg/kg, ip administered on every 2 days for 28 days relative to control; format: functional; details: MDA-MB-231, 672 h, time 28 day, read-out: TGI
# MDA-MB-231 [2] = experiment: Effect on ERK1/2 phosphorylation in human MDA-MB-231 cells at 5 uM incubated for 24 hrs by Western blot analysis; format: functional, cell-based
# [3] = Toxicity in BALB/c nude mouse xenografted with human MDA-MB-231 cells assessed as drug tolerance at 38 mg/kg, ip administered on every 2 days for 28 days; format: organism-based; details: in vivo, 672 h, time 28 day
# MDA-MB-231 [4] = experiment: Effect on MEK phosphorylation in human MDA-MB-231 cells at 5 uM incubated for 24 hrs by Western blot analysis; format: functional, cell-based
# [5] = Toxicity in BALB/c nude mouse xenografted with human MDA-MB-231 cells assessed as damage in liver at 38 mg/kg, ip administered on every 2 days for 28 days by H and E staining based analysis; format: organism-based; details: in vivo, 672 h, time 28 day
# MDA-MB-231 [6] = experiment: Effect on total ERK1/2 in human MDA-MB-231 cells at 5 uM incubated for 24 hrs by Western blot analysis; format: functional, cell-based
# MDA-MB-231 [7] = experiment: Induction of DNA damage in human MDA-MB-231 cells assessed as increase in olive tail moments at 5 uM incubated for 24 hrs by Comet assay; format: functional, cell-based
# MDA-MB-231 [8] = experiment: Induction of DNA damage in human MDA-MB-231 cells assessed as increase in gamma-H2AX level at 5 uM incubated for 24 hrs by immunofluorescence based analysis; format: functional, cell-based
# MDA-MB-468 = experiment: Antitumor activity against human MDA-MB-468 cells harboring wild-type BRCA incubated for 72 hrs by MTT assay; format: functional, cell-based; details: MDA-MB-468, 72 h
# MDA-MB-231 [9] = experiment: Antitumor activity against human MDA-MB-231 cells xenografted in BALB/c nude mouse assessed as increase in apoptotic cells at 38 mg/kg, ip administered on every 2 days for 28 days by H and E staining based analysis; format: functional, organism-based; details: time 28.0 day
# [10] = target: Poly [ADP-ribose] polymerase 1 (Homo sapiens, UniProt P09874); experiment: Inhibition of PARP1 (unknown origin) using histone as substrate incubated for 60 mins by ELISA
# MDA-MB-231 [11] = experiment: Induction of apoptosis in human MDA-MB-231 cells assessed as increase in cleaved caspase-3 level at 5 uM incubated for 24 hrs by Western blot analysis; format: functional, cell-based
# MDA-MB-231 [12] = experiment: Induction of apoptosis in human MDA-MB-231 cells as increase in red fluorescence at 5 uM incubated for 24 hrs by Calcein AM/PI staining based confocal microscopy; format: functional, cell-based
# [13] = Toxicity in BALB/c nude mouse xenografted with human MDA-MB-231 cells assessed as damage in kidney at 38 mg/kg, ip administered on every 2 days for 28 days by H and E staining based analysis; format: organism-based; details: in vivo, 672 h, time 28 day
# MDA-MB-231 [14] = experiment: Induction of apoptosis in human MDA-MB-231 cells assessed as increase in Bax level at 5 uM incubated for 24 hrs by Western blot analysis; format: functional, cell-based
# MDA-MB-231 [15] = experiment: Induction of apoptosis in human MDA-MB-231 cells assessed as increase in cleaved caspase-9 level at 5 uM incubated for 24 hrs by Western blot analysis; format: functional, cell-based
# MDA-MB-231 [16] = experiment: Induction of depolarization of mitochondrial membrane potential in human MDA-MB-231 cells at 5 uM incubated for 24 hrs by JC-1 staining based flow cytometry relative to control; format: functional
# [17] = Cytotoxicity against human MCF-10A cells incubated for 72 hrs by MTT assay; format: toxicity, cell-based
# MDA-MB-231 [18] = experiment: Induction of apoptosis in human MDA-MB-231 cells assessed as decrease in Bcl-2 level at 5 uM incubated for 24 hrs by Western blot analysis; format: functional, cell-based
# MDA-MB-231 [19] = experiment: Antitumor activity against human MDA-MB-231 cells xenografted in BALB/c nude mouse assessed as increase in necrotic cells at 38 mg/kg, ip administered on every 2 days for 28 days by H and E staining based analysis; format: functional, organism-based; details: time 28.0 day
# MDA-MB-231 [20] = experiment: […] activity in human MDA-MB-231 cells at 1 uM incubated for 24 hrs by wound healing assay; format: functional, cell-based
# MDA-MB-231 [21] = experiment: Induction of apoptosis in human MDA-MB-231 cells at 5 uM incubated for 24 hrs by Annexin V-FITC/PI staining based flow cytometry relative to control; format: functional
# MDA-MB-231 [22] = experiment: Induction of apoptosis in human MDA-MB-231 cells assessed as increase in cleaved PARP level at 5 uM incubated for 24 hrs by Western blot analysis; format: functional, cell-based
# MDA-MB-231 [23] = experiment: Effect on RAF expression in human MDA-MB-231 cells at 5 uM incubated for 24 hrs by Western blot analysis; format: functional, cell-based
# MDA-MB-231 [24] = experiment: Effect on total MEK in human MDA-MB-231 cells at 5 uM incubated for 24 hrs by Western blot analysis; format: functional, cell-based
# MDA-MB-231 [25] = experiment: Antitumor activity against human MDA-MB-231 cells harboring wild-type BRCA incubated for 72 hrs by MTT assay; format: functional, cell-based; details: MDA-MB-231, 72 h
# HCC1937 = experiment: Antitumor activity against BRCA 1-deficient human HCC1937 cells incubated for 72 hrs by MTT assay; format: functional, cell-based; details: HCC1937, 72 h
# [26] = Toxicity in BALB/c nude mouse xenografted with human MDA-MB-231 cells assessed as body weight change at 38 mg/kg, ip administered on every 2 days for 28 days; format: organism-based; details: in vivo, 672 h, time 28 day
# MDA-MB-231 [27] = experiment: Anti-migration activity in human MDA-MB-231 cells assessed as wound closure area at 1 uM incubated for 24 hrs by wound healing assay (reference value: 75.6 %); format: functional
# MDA-MB-231 [28] = experiment: Effect on CRAF expression in human MDA-MB-231 cells at 5 uM incubated for 24 hrs by Western blot analysis; format: functional, cell-based
# MDA-MB-436 = experiment: Antitumor activity against BRCA 1-deficient human MDA-MB-436 cells incubated for 72 hrs by MTT assay; format: functional, cell-based; details: MDA-MB-436, 72 h
# [29] = Toxicity in BALB/c nude mouse xenografted with human MDA-MB-231 cells assessed as damage in heart at 38 mg/kg, ip administered on every 2 days for 28 days by H and E staining based analysis; format: organism-based; details: in vivo, 672 h, time 28 day
# MDA-MB-231 [30] = experiment: Induction of ROS generation in human MDA-MB-231 cells at 5 uM incubated for 24 hrs by DCFH-DA staining based flow cytometric analysis; format: functional, cell-based
# [31] = Toxicity in BALB/c nude mouse xenografted with human MDA-MB-231 cells assessed as damage in spleen at 38 mg/kg, ip administered on every 2 days for 28 days by H and E staining based analysis; format: organism-based; details: in vivo, 672 h, time 28 day
# [32] = Toxicity in BALB/c nude mouse xenografted with human MDA-MB-231 cells assessed as damage in lung at 38 mg/kg, ip administered on every 2 days for 28 days by H and E staining based analysis; format: organism-based; details: in vivo, 672 h, time 28 day
# MDA-MB-231 [33] = experiment: Antitumor activity against human MDA-MB-231 cells xenografted in BALB/c nude mouse assessed as decrease in Ki-67 expression at 38 mg/kg, ip administered on every 2 days for 28 days by H and E staining based analysis; format: functional, organism-based; details: time 28.0 day
# Sequence of Poly [ADP-ribose] polymerase 1 (P09874 whole entry): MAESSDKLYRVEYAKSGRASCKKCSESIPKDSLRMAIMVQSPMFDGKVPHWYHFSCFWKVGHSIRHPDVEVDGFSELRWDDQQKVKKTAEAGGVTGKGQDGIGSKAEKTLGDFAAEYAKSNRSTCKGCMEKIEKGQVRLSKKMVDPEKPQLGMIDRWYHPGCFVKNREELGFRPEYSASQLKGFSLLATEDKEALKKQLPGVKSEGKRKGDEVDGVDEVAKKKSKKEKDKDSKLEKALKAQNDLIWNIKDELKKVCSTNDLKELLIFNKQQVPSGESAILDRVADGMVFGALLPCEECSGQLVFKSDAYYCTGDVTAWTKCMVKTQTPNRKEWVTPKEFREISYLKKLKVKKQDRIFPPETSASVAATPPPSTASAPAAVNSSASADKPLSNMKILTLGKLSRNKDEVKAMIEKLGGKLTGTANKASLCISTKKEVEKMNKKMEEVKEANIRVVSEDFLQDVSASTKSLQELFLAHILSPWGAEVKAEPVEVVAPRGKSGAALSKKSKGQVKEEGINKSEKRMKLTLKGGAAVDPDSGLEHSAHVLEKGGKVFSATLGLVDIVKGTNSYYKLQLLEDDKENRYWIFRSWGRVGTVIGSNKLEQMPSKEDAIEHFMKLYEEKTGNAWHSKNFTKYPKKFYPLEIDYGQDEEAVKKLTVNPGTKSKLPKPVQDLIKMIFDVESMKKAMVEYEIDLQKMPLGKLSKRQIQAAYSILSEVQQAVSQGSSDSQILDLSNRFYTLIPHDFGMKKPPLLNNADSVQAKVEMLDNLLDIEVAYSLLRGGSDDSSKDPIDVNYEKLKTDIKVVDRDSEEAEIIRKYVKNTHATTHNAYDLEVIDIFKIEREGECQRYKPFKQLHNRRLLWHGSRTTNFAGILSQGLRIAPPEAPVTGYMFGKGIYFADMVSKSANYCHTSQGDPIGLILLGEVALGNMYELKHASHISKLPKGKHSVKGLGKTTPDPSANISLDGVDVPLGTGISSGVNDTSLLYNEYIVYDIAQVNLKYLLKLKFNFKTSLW
smiles,measurement,setting,value
COc1cc(OC)c(/C=C/S(=O)(=O)Cc2ccc(OC)c(NCCCC(=O)N3CCN(C(=O)c4cc(Cc5n[nH]c(=O)c6ccccc56)ccc4F)CC3)c2)c(OC)c1,inhibition in vivo at 38 mg/kg,MDA-MB-231 [1],61.3%
same,Activity,MDA-MB-231 [2],Active
same,Activity,[3],Non-Toxic
same,Activity,MDA-MB-231 [4],Active
same,Activity,[5],Non-Toxic
same,Activity,MDA-MB-231 [6],inactive
same,Activity,MDA-MB-231 [7],Active
same,Activity,MDA-MB-231 [8],Active
same,IC50,MDA-MB-468,1240 nM
same,Activity,MDA-MB-231 [9],Active
same,IC50,[10],112 nM
same,Activity,MDA-MB-231 [11],Active
same,Activity,MDA-MB-231 [12],Active
same,Activity,[13],Non-Toxic
same,Activity,MDA-MB-231 [14],Active
same,Activity,MDA-MB-231 [15],Active
same,Activity,MDA-MB-231 [16],Active
same,IC50 at 72 h,[17],> 40000 nM
same,Activity,MDA-MB-231 [18],Active
same,Activity,MDA-MB-231 [19],Active
same,Activity,MDA-MB-231 [20],Active
same,Activity,MDA-MB-231 [21],48.26%
same,Activity,MDA-MB-231 [22],Active
same,Activity,MDA-MB-231 [23],Active
same,Activity,MDA-MB-231 [24],inactive
same,IC50,MDA-MB-231 [25],750 nM
same,IC50,HCC1937,1170 nM
same,Activity,[26],Non-Toxic
same,Activity,MDA-MB-231 [27],17.3%
same,Activity,MDA-MB-231 [28],Active
same,IC50,MDA-MB-436,970 nM
same,Activity,[29],Non-Toxic
same,Activity,MDA-MB-231 [30],Active
same,Activity,[31],Non-Toxic
same,Activity,[32],Non-Toxic
same,Activity,MDA-MB-231 [33],Active
